ChEMBL document CHEMBL1201862, “PubChem BioAssay data set” (2004)
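Protocol summary: plate cells (96-well), add compound at 5 concentrations, incubate 48 h, interpolate endpoints linearly. At the GI50, growth is halved.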 Calls of active or inactive are those of the source. Rule as the data show it: active = GI50 up to about 1.1 µM and inactive = higher.

What was measured:
Assay in all cases: growth of human tumour cells (NCI), 48 h
K562 = system: K562
RPMI-8226 = system: RPMI-8226
NCI-H23 = system: NCI-H23
M14 = system: M14
COLO 205 = system: COLO 205
Hs-578T = system: Hs-578T
SK-MEL-2 = system: SK-MEL-2
TK-10 = system: TK-10
RXF 393 = system: RXF 393
OVCAR-8 = system: OVCAR-8
DU-145 = system: DU-145
OVCAR-3 = system: OVCAR-3
SF-295 = system: SF-295
HCT-15 = system: HCT-15
MDA-MB-435 = system: MDA-MB-435
LOX IMVI = system: LOX IMVI
NCI-H522 = system: NCI-H522
SF-268 = system: SF-268
NCI/ADR-RES = system: NCI/ADR-RES
EKVX = system: EKVX
SNB-75 = system: SNB-75
CAKI-1 = system: CAKI-1
UACC-257 = system: UACC-257
SK-MEL-5 = system: SK-MEL-5
NCI-H460 = system: NCI-H460
HCT-116 = system: HCT-116
786-0 = system: 786-0
UO-31 = system: UO-31
CCRF-CEM = system: CCRF-CEM
SK-MEL-28 = system: SK-MEL-28
SW-620 = system: SW-620
T47D = system: T47D
SNB-19 = system: SNB-19
SR = system: SR
IGROV-1 = system: IGROV-1
NCI-H226 = system: NCI-H226
A498 = system: A498
MOLT-4 = system: MOLT-4
ACHN = system: ACHN
SF-539 = system: SF-539
BT-549 = system: BT-549
MDA-N = system: MDA-N
KM12 = system: KM12
UACC-62 = system: UACC-62
OVCAR-5 = system: OVCAR-5
Malme-3M = system: Malme-3M
HOP-92 = system: HOP-92
U-251 = system: U-251
SN12C = system: SN12C
A549 = system: A549
HCC 2998 = system: HCC 2998
MCF7 = system: MCF7
PC-3 = system: PC-3
HOP-62 = system: HOP-62
OVCAR-4 = system: OVCAR-4
MDA-MB-231 = system: MDA-MB-231
SK-OV-3 = system: SK-OV-3
HT-29 = system: HT-29
HL-60 = system: HL-60

In the case of O=c1c2cc(Br)ccc2oc2nc3n(c(=O)c12)CCCS3, the GI50 (K562) is reported as > 100 µM (inactive), the GI50 (RPMI-8226) is reported as > 100 µM (inactive) and the GI50 (NCI-H23) is reported as > 100 µM (inactive). The GI50 (M14) was > 100 µM (inactive), the GI50 (COLO 205) was > 100 µM (inactive) and the GI50 (Hs-578T) was > 100 µM (inactive). The GI50 (SK-MEL-2) was > 100 µM (inactive), the GI50 (TK-10) was > 100 µM (inactive) and the GI50 (RXF 393) was > 100 µM (inactive). For the same compound, the GI50 (OVCAR-8) was > 100 µM (inactive), the GI50 (DU-145) was > 100 µM (inactive) and the GI50 (OVCAR-3) was > 100 µM (inactive). For the same compound, the GI50 (SF-295) was > 100 µM (inactive), the GI50 (HCT-15) was greater than 100 µM and the GI50 (MDA-MB-435) was > 100 µM (inactive). For the same compound, the GI50 (LOX IMVI) was > 100 µM (inactive), the GI50 (NCI-H522) was > 100 µM (inactive) and the GI50 (SF-268) was > 100 µM (inactive). The GI50 (NCI/ADR-RES) was > 100 µM (inactive), the GI50 (EKVX) was > 100 µM (inactive) and the GI50 (SNB-75) was > 100 µM (inactive). For the same compound, the GI50 (CAKI-1) was > 100 µM (inactive), the GI50 (UACC-257) was > 100 µM (inactive) and the GI50 (SK-MEL-5) was 47.5 µM (inactive). The GI50 (NCI-H460) was > 100 µM (inactive), the GI50 (HCT-116) was > 100 µM (inactive) and the GI50 (786-0) was > 100 µM (inactive). The GI50 (UO-31) was 39.2 µM (inactive), the GI50 (CCRF-CEM) was > 100 µM (inactive) and the GI50 (SK-MEL-28) was > 100 µM (inactive). For the same compound, the GI50 (SW-620) was > 100 µM (inactive), the GI50 (T47D) was 30.1 µM (inactive) and the GI50 (SNB-19) was > 100 µM (inactive). For the same compound, the GI50 (SR) was > 100 µM (inactive), the GI50 (IGROV-1) was > 100 µM (inactive) and the GI50 (NCI-H226) was > 100 µM (inactive). For the same compound, the GI50 (A498) was > 100 µM (inactive), the GI50 (MOLT-4) was > 100 µM (inactive) and the GI50 (ACHN) was > 100 µM (inactive). For the same compound, the GI50 (SF-539) was > 100 µM (inactive), the GI50 (BT-549) was > 100 µM (inactive) and the GI50 (MDA-N) was > 100 µM (inactive). The GI50 (KM12) was > 100 µM (inactive), the GI50 (UACC-62) was > 100 µM (inactive) and the GI50 (OVCAR-5) was > 100 µM (inactive). For the same compound, the GI50 (Malme-3M) was > 100 µM (inactive), the GI50 (HOP-92) was > 100 µM (inactive) and the GI50 (U-251) was > 100 µM (inactive). The GI50 (SN12C) was > 100 µM (inactive), the GI50 (A549) was > 100 µM (inactive) and the GI50 (HCC 2998) was > 100 µM (inactive). For the same compound, the GI50 (MCF7) was > 100 µM (inactive), the GI50 (PC-3) was > 100 µM (inactive) and the GI50 (HOP-62) was > 100 µM (inactive). The GI50 (OVCAR-4) was > 100 µM (inactive) and the GI50 (MDA-MB-231) was > 100 µM (inactive).

In the case of CC1CC(=O)N2CCCNC2=C1C#N (stereo not given), the GI50 (K562) is reported as > 100 µM (inactive), the GI50 (RPMI-8226) is reported as > 100 µM (inactive) and the GI50 (NCI-H23) is reported as > 100 µM (inactive). The GI50 (M14) was > 100 µM (inactive), the GI50 (COLO 205) was > 100 µM (inactive) and the GI50 (Hs-578T) was > 100 µM (inactive). For the same compound, the GI50 (SK-MEL-2) was > 100 µM (inactive), the GI50 (TK-10) was > 100 µM (inactive) and the GI50 (RXF 393) was > 100 µM (inactive). For the same compound, the GI50 (OVCAR-8) was > 100 µM (inactive), the GI50 (DU-145) was > 100 µM (inactive) and the GI50 (OVCAR-3) was > 100 µM (inactive). The GI50 (SF-295) was > 100 µM (inactive), the GI50 (HCT-15) was greater than 100 µM and the GI50 (MDA-MB-435) was > 100 µM (inactive). For the same compound, the GI50 (SK-OV-3) was > 100 µM (inactive), the GI50 (LOX IMVI) was > 100 µM (inactive) and the GI50 (NCI-H522) was > 100 µM (inactive). The GI50 (SF-268) was > 100 µM (inactive), the GI50 (NCI/ADR-RES) was > 100 µM (inactive) and the GI50 (EKVX) was > 100 µM (inactive). For the same compound, the GI50 (SNB-75) was > 100 µM (inactive), the GI50 (CAKI-1) was > 100 µM (inactive) and the GI50 (UACC-257) was > 100 µM (inactive). For the same compound, the GI50 (SK-MEL-5) was > 100 µM (inactive), the GI50 (NCI-H460) was > 100 µM (inactive) and the GI50 (HCT-116) was > 100 µM (inactive). The GI50 (786-0) was > 100 µM (inactive), the GI50 (UO-31) was > 100 µM (inactive) and the GI50 (CCRF-CEM) was > 100 µM (inactive). The GI50 (SK-MEL-28) was > 100 µM (inactive), the GI50 (HT-29) was > 100 µM (inactive) and the GI50 (SW-620) was > 100 µM (inactive). The GI50 (T47D) was > 100 µM (inactive), the GI50 (SNB-19) was > 100 µM (inactive) and the GI50 (SR) was > 100 µM (inactive). For the same compound, the GI50 (IGROV-1) was > 100 µM (inactive), the GI50 (NCI-H226) was > 100 µM (inactive) and the GI50 (MOLT-4) was > 100 µM (inactive). For the same compound, the GI50 (SF-539) was > 100 µM (inactive), the GI50 (BT-549) was > 100 µM (inactive) and the GI50 (MDA-N) was > 100 µM (inactive). For the same compound, the GI50 (KM12) was > 100 µM (inactive), the GI50 (UACC-62) was > 100 µM (inactive) and the GI50 (Malme-3M) was > 100 µM (inactive). The GI50 (U-251) was > 100 µM (inactive), the GI50 (SN12C) was > 100 µM (inactive) and the GI50 (A549) was > 100 µM (inactive). The GI50 (HL-60) was > 10 µM (inactive), the GI50 (HCC 2998) was > 100 µM (inactive) and the GI50 (MCF7) was > 100 µM (inactive). For the same compound, the GI50 (PC-3) was > 100 µM (inactive), the GI50 (HOP-62) was > 100 µM (inactive) and the GI50 (OVCAR-4) was > 100 µM (inactive). For the same compound, the GI50 (MDA-MB-231) was > 100 µM (inactive).

With CCNCC(O)c1ccc(N)c([N+](=O)[O-])c1 (stereo not given) the GI50 (K562) was > 100 µM (inactive), the GI50 (RPMI-8226) was > 100 µM (inactive) and the GI50 (NCI-H23) was > 100 µM (inactive). For the same compound, the GI50 (M14) was > 100 µM (inactive), the GI50 (COLO 205) was > 100 µM (inactive) and the GI50 (Hs-578T) was > 100 µM (inactive). For the same compound, the GI50 (SK-MEL-2) was > 100 µM (inactive), the GI50 (TK-10) was > 100 µM (inactive) and the GI50 (OVCAR-8) was > 100 µM (inactive). The GI50 (DU-145) was > 100 µM (inactive), the GI50 (OVCAR-3) was > 100 µM (inactive) and the GI50 (SF-295) was > 100 µM (inactive). The GI50 (HCT-15) was greater than 100 µM, the GI50 (MDA-MB-435) was > 100 µM (inactive) and the GI50 (SK-OV-3) was > 100 µM (inactive). The GI50 (LOX IMVI) was > 100 µM (inactive), the GI50 (NCI-H522) was > 100 µM (inactive) and the GI50 (SF-268) was > 100 µM (inactive). The GI50 (NCI/ADR-RES) was > 100 µM (inactive), the GI50 (EKVX) was > 100 µM (inactive) and the GI50 (SNB-75) was > 100 µM (inactive). For the same compound, the GI50 (CAKI-1) was > 100 µM (inactive), the GI50 (UACC-257) was > 100 µM (inactive) and the GI50 (SK-MEL-5) was > 100 µM (inactive). For the same compound, the GI50 (NCI-H460) was > 100 µM (inactive), the GI50 (HCT-116) was > 100 µM (inactive) and the GI50 (786-0) was > 100 µM (inactive). For the same compound, the GI50 (UO-31) was > 100 µM (inactive), the GI50 (CCRF-CEM) was > 100 µM (inactive) and the GI50 (SK-MEL-28) was > 100 µM (inactive). For the same compound, the GI50 (HT-29) was > 100 µM (inactive), the GI50 (SW-620) was > 100 µM (inactive) and the GI50 (T47D) was > 100 µM (inactive). For the same compound, the GI50 (SNB-19) was > 100 µM (inactive), the GI50 (SR) was > 100 µM (inactive) and the GI50 (IGROV-1) was > 100 µM (inactive). For the same compound, the GI50 (NCI-H226) was > 100 µM (inactive), the GI50 (A498) was > 100 µM (inactive) and the GI50 (MOLT-4) was > 100 µM (inactive). The GI50 (ACHN) was > 100 µM (inactive), the GI50 (SF-539) was > 100 µM (inactive) and the GI50 (BT-549) was > 100 µM (inactive). The GI50 (MDA-N) was > 100 µM (inactive), the GI50 (UACC-62) was > 100 µM (inactive) and the GI50 (OVCAR-5) was > 100 µM (inactive). The GI50 (U-251) was > 100 µM (inactive), the GI50 (SN12C) was > 100 µM (inactive) and the GI50 (A549) was > 100 µM (inactive). For the same compound, the GI50 (HL-60) was > 100 µM (inactive), the GI50 (MCF7) was > 100 µM (inactive) and the GI50 (PC-3) was > 100 µM (inactive). For the same compound, the GI50 (HOP-62) was > 100 µM (inactive), the GI50 (OVCAR-4) was 21.4 µM (inactive) and the GI50 (MDA-MB-231) was > 100 µM (inactive).
